According to patent US10258610B2, “Pharmaceutical compositions comprising rifaximin, processes for their preparation and their use in the treatment of vaginal infections” (ALFASIGMA S.P.A., priority 2011, dated 2019):

Key:
Test in all cases: Vaginal microbiota by quantitative real-time PCR
Assay type in all cases: in vivo
Prevotella = details: for Target DNA/genomic vaginal DNA, Prevotella / Target DNA/genomic or vaginal DNA, Prevotella: average; for Target DNA/genomic or vaginal DNA, Prevotella: visit V4, patients maintaining recovery
Experimental: (§1) During the clinical trial, described in Example 12, samples of vaginal cleansing were collected and the composition of vaginal microbiota was determined by means of the quantitative real-time PCR.
(§2) With the real-time PCR the DNA samples are amplified with gender- and/or species-specific primers whose target is the 16S rRNA bacterial gene or the 16S-23 S rRNA region.
(§3) In particular, specific probes were used for the Lactobacillus gender, for Gardnerella vaginalis, for Atopobium, for Prevotella and for Veillonella, since they represent the main bacterial groups suffering from modifications in case of bacterial vaginosis.
(§4) Table 28 reports the values of real-time PCR relating to bacterial genders and species quantified in vaginal cleansings of women belonging to the different treatment groups, expressed as total target DNA ng/genomic DNA μg, for microbial species tested for each group at the visit V3 if compared to the visit V1.
(§5) The composition of vaginal microbiota was determined by means of the quantitative real-time PCR technique of patients maintaining their recovery at the visit V4, 30-40 days after the end of the therapy, and the DNA samples amplified with gender- and/or species-specific primers were evaluated by means of the real-time PCR technique.
(§6) Table 29 reports the values of real-time PCR relating to target bacterial genders and species quantified in vaginal rinses of women belonging to the different treatment groups, expressed as total target DNA ng/genomic DNA μg, for microbial species tested for each group at the visit V4 when compared to the values observed at the visit V1 of all treated patients.

Atopobium = details: for Target DNA/genomic vaginal DNA, Atopobium / Target DNA/genomic or vaginal DNA, Atopobium: average; for Target DNA/genomic or vaginal DNA, Atopobium: visit V4, patients maintaining recovery
Experimental: as §1, §2, §3, §4, §5, §6

Veillonella = details: average; for Target DNA/genomic or vaginal DNA, Veillonella: visit V4, patients maintaining recovery
Experimental: as §1, §2, §3, §4, §5, §6

Lactobacillus = details: for Target DNA/genomic vaginal DNA, Lactobacillus / Target DNA/genomic or vaginal DNA, Lactobacillus: average; for Target DNA/genomic or vaginal DNA, Lactobacillus: visit V4, patients maintaining recovery; for increase of Lactobacilli concentration: visit V4
Experimental: as §1, §2, §3, §4, §5, §6

[1] = all groups treated with rifaximin, compared to placebo
[2] = visit V1 (before therapy), Group A: 1 tablet 100 mg × 5 days
[3] = visit V1 (before therapy), Group B: 1 tablet 25 mg × 5 days
[4] = visit V1 (before therapy), Group C: 1 tablet 100 mg × 2 days
[5] = visit V3, Group A: 1 tablet 100 mg × 5 days
[6] = visit V3, Group B: 1 tablet 25 mg × 5 days
[7] = visit V3, Group C: 1 tablet 100 mg × 2 days
[8] = Group A: 1 tablet 100 mg × 5 days
[9] = Group B: 1 tablet 25 mg × 5 days
[10] = Group C: 1 tablet 100 mg × 2 days

Structure (SMILES): CO[C@H]1/C=C/O[C@@]2(C)Oc3c(C)c(O)c4c(O)c(c5c(nc6cc(C)ccn65)c4c3C2=O)NC(=O)/C(C)=C\C=C\[C@H](C)[C@H](O)[C@@H](C)[C@@H](O)[C@@H](C)[C@H](OC(C)=O)[C@@H]1C [Rifaximin]
- change of Prevotella concentration by real-time PCR (Prevotella; [1]): reduction
- Target DNA/genomic vaginal DNA, Prevotella (Prevotella; [2]): 18.8 ng/µg
- Target DNA/genomic vaginal DNA, Prevotella (Prevotella; [3]): 18.47 ng/µg
- Target DNA/genomic vaginal DNA, Prevotella (Prevotella; [4]): 17.91 ng/µg
- Target DNA/genomic vaginal DNA, Prevotella (Prevotella; [5]): 12.2 ng/µg
- Target DNA/genomic vaginal DNA, Prevotella (Prevotella; [6]): 3.712 ng/µg
- Target DNA/genomic vaginal DNA, Prevotella (Prevotella; [7]): 7.248 ng/µg
- Target DNA/genomic or vaginal DNA, Prevotella (Prevotella; [8]): 0.04296 ng/µg
- Target DNA/genomic or vaginal DNA, Prevotella (Prevotella; [9]): 2.345 ng/µg
- Target DNA/genomic or vaginal DNA, Prevotella (Prevotella; [10]): 54 ng/µg
- change of Atopopium concentration by real-time PCR (Atopobium; [1]): reduction
- Target DNA/genomic vaginal DNA, Atopobium (Atopobium; [2]): 93.07 ng/µg
- Target DNA/genomic vaginal DNA, Atopobium (Atopobium; [3]): 108.2 ng/µg
- Target DNA/genomic vaginal DNA, Atopobium (Atopobium; [4]): 170.4 ng/µg
- Target DNA/genomic vaginal DNA, Atopobium (Atopobium; [5]): 61.46 ng/µg
- Target DNA/genomic vaginal DNA, Atopobium (Atopobium; [6]): 48.8 ng/µg
- Target DNA/genomic vaginal DNA, Atopobium (Atopobium; [7]): 59.99 ng/µg
- Target DNA/genomic or vaginal DNA, Atopobium (Atopobium; [8]): 5.348 ng/µg
- Target DNA/genomic or vaginal DNA, Atopobium (Atopobium; [9]): 28.25 ng/µg
- Target DNA/genomic or vaginal DNA, Atopobium (Atopobium; [10]): 139.9 ng/µg
- Target DNA/genomic vaginal DNA, Veillonella (Veillonella; [2]): 0.04128 ng/µg
- Target DNA/genomic vaginal DNA, Veillonella (Veillonella; [3]): 0.03492 ng/µg
- Target DNA/genomic vaginal DNA, Veillonella (Veillonella; [4]): 0.2214 ng/µg
- Target DNA/genomic vaginal DNA, Veillonella (Veillonella; [5]): 0.007807 ng/µg
- Target DNA/genomic vaginal DNA, Veillonella (Veillonella; [6]): 0.01761 ng/µg
- Target DNA/genomic vaginal DNA, Veillonella (Veillonella; [7]): 0.005642 ng/µg
- Target DNA/genomic or vaginal DNA, Veillonella (Veillonella; [8]): 0 ng/µg
- Target DNA/genomic or vaginal DNA, Veillonella (Veillonella; [9]): 0 ng/µg
- Target DNA/genomic or vaginal DNA, Veillonella (Veillonella; [10]): 0.2748 ng/µg
- change of Lactobacilli by real-time PCR (Lactobacillus; all groups treated with rifaximin): Lactobacilli increase
- Target DNA/genomic vaginal DNA, Lactobacillus (Lactobacillus; [2]): 16.83 ng/µg
- Target DNA/genomic vaginal DNA, Lactobacillus (Lactobacillus; [3]): 10.06 ng/µg
- Target DNA/genomic vaginal DNA, Lactobacillus (Lactobacillus; [4]): 12.66 ng/µg
- Target DNA/genomic vaginal DNA, Lactobacillus (Lactobacillus; [5]): 20.09 ng/µg
- Target DNA/genomic vaginal DNA, Lactobacillus (Lactobacillus; [6]): 33.78 ng/µg
- Target DNA/genomic vaginal DNA, Lactobacillus (Lactobacillus; [7]): 25.36 ng/µg
- Target DNA/genomic or vaginal DNA, Lactobacillus (Lactobacillus; [8]): 21.3 ng/µg
- Target DNA/genomic or vaginal DNA, Lactobacillus (Lactobacillus; [9]): 39.57 ng/µg
- Target DNA/genomic or vaginal DNA, Lactobacillus (Lactobacillus; [10]): 8.959 ng/µg
- increase of Lactobacilli concentration (Lactobacillus; group A: tablet 100 mg rifaximin for five days): twentyfold
- increase of Lactobacilli concentration (Lactobacillus; group B: tablet 25 mg rifaximin for five days): fortyfold
- increase of Lactobacilli concentration (Lactobacillus; group C: tablet 100 mg rifaximin for two days): eightfold
